Test results as given in ChEMBL document CHEMBL5696441 (Nat Chem Biol, 2011).

Tests used:
[1] = biological target: Serine/threonine-protein kinase 4 (Homo sapiens) (UniProt Q13043); test: Inhibition of human MST1 assessed as residual activity at 1 uM using RB-CTF as substrate in presence of 33P-ATP by ProQinase assay relative to control
[2] = biological target: Tyrosine-protein kinase BTK (Homo sapiens) (UniProt Q06187); test: Inhibition of BTK (unknown origin) assessed as remaining activity at 1 uM by Kinome scan method relative to control
[3] = biological target: Dual specificity protein kinase CLK4 (Homo sapiens) (UniProt Q9HAZ1); test: Inhibition of CLK4 (unknown origin) assessed as remaining activity at 1 uM by Kinome scan method relative to control
[4] = biological target: T1, Mitogen-activated protein kinase kinase kinase kinase 2 (Homo sapiens) (UniProt Q12851); test: Inhibition of human MAP4K2 assessed as residual activity at 1 uM using 3xChocktide-PKC as substrate in presence of 33P-ATP by ProQinase assay relative to control
T1 sequence (whole entry): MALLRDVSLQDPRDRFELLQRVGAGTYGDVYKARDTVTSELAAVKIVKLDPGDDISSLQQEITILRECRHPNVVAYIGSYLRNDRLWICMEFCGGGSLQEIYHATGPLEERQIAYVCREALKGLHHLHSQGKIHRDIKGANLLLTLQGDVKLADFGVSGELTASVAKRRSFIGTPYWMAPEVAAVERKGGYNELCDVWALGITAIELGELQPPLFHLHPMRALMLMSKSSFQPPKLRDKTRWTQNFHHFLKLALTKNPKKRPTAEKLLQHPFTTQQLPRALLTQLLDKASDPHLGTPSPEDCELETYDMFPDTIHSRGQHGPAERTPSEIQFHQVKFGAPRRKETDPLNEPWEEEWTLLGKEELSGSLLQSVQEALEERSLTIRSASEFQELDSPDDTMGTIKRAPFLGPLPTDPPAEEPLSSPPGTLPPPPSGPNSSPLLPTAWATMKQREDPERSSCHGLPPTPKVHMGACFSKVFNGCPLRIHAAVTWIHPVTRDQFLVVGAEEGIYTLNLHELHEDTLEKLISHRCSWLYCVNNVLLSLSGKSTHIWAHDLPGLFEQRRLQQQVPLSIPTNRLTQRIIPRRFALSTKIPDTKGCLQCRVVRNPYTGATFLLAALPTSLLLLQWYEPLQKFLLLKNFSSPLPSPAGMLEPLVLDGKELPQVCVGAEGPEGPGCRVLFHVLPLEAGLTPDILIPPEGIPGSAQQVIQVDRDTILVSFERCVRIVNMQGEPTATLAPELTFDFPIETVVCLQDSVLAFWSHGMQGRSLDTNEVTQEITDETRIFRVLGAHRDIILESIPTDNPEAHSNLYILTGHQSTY

[5] = tested on: Epidermal growth factor receptor (Homo sapiens), P00533 [L861Q]; test: Inhibition of human EGFR L861Q mutant assessed as residual activity at 1 uM using PolyEY as substrate in presence of 33P-ATP by ProQinase assay relative to control
[6] = Anti-inflammatory activity against human derived high respond PBMC cells assessed as inhibition in stimulated IL-1ra cytokine release incubated for 2 hrs in the presence of LPS/SEB/aCD28 by Luminex based sandwich immunoassay; type: functional, cell-based
[7] = biological target: CDK1/Cyclin E (Homo sapiens) (UniProt P06493+P24864); test: Inhibition of human CDK1/Cyclin E1 assessed as residual activity at 1 uM using RBER-CHKtide as substrate in presence of 33P-ATP by ProQinase assay relative to control; type: protein-complex assay
[8] = biological target: Tyrosine-protein kinase FRK (Homo sapiens) (UniProt P42685); test: Inhibition of FRK (unknown origin) assessed as remaining activity at 1 uM by Kinome scan method relative to control
Sequence of Tyrosine-protein kinase FRK (Homo sapiens) (P42685 whole entry): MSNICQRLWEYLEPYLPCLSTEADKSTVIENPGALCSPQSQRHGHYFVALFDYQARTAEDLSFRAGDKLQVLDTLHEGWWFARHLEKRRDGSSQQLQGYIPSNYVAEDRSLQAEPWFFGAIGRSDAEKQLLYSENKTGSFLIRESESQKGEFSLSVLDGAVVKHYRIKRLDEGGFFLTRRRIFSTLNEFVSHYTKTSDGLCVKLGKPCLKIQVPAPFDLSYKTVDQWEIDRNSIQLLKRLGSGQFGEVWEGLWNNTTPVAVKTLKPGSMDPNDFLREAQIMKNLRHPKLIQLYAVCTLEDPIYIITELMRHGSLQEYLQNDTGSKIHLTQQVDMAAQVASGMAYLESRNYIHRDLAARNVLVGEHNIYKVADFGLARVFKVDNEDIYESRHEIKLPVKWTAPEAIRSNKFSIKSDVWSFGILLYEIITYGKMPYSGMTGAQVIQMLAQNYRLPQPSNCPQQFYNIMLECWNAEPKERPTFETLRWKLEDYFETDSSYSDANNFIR

[9] = biological target: T2, Serine/threonine-protein kinase DCLK2 (Homo sapiens) (UniProt Q8N568); test: Inhibition of human DCAMKL2 assessed as residual activity at 1 uM using RBER-CHKtide as substrate in presence of 33P-ATP by ProQinase assay relative to control
T2 sequence (whole entry): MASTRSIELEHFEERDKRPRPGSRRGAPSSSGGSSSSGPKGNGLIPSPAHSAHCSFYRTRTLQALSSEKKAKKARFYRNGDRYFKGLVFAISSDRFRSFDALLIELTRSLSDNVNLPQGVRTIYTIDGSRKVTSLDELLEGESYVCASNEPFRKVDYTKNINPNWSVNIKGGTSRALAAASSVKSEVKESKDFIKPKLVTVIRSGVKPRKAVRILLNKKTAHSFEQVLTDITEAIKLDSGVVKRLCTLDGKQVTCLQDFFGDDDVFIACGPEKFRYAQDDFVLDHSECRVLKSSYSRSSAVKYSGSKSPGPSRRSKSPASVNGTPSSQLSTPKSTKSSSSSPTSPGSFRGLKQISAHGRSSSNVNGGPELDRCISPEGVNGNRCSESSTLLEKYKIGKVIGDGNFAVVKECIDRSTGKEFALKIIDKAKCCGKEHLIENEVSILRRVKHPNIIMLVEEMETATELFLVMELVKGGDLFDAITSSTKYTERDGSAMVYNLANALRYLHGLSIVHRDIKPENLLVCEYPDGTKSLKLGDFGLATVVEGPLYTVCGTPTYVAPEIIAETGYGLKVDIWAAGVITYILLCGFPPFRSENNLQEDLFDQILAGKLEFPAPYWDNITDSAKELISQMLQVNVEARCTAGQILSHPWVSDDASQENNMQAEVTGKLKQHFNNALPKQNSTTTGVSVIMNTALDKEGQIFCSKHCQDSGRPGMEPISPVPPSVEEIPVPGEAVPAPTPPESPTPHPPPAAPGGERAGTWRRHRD

[10] = biological target: Mitogen-activated protein kinase kinase kinase 11 (Homo sapiens) (UniProt Q16584); test: Inhibition of human MAP3K11 assessed as residual activity at 1 uM using MBP as substrate in presence of 33P-ATP by ProQinase assay relative to control
Sequence of Mitogen-activated protein kinase kinase kinase 11 (Homo sapiens) (Q16584 whole entry, looked up): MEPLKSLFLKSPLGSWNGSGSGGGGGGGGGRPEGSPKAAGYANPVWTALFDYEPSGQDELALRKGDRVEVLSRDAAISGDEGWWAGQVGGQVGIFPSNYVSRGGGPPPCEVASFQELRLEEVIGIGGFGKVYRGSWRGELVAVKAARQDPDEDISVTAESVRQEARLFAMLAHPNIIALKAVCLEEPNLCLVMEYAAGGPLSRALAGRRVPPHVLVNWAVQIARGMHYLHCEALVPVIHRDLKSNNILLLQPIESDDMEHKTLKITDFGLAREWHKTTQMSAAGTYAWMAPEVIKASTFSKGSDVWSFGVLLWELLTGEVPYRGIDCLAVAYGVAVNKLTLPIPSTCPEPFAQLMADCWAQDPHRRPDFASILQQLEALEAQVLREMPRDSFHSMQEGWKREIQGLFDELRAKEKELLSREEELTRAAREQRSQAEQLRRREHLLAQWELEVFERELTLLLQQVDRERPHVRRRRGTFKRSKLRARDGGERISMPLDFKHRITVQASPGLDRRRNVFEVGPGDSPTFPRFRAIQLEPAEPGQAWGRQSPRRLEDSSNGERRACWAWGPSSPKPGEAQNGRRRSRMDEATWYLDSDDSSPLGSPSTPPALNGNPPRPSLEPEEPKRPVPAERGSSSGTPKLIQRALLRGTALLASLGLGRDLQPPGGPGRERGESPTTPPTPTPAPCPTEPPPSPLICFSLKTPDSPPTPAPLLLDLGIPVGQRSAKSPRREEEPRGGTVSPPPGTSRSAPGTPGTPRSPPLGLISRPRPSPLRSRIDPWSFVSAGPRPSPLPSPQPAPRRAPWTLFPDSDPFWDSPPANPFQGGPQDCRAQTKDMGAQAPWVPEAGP

[11] = biological target: CDK6/cyclin D1 (Homo sapiens) (UniProt P24385+Q00534); test: Inhibition of human CDK6/CycD1 assessed as residual activity at 1 uM using RBER-CHKtide as substrate in presence of 33P-ATP by ProQinase assay relative to control; type: protein-complex assay
[12] = biological target: Ephrin type-B receptor 2 (Homo sapiens) (UniProt P29323); test: Inhibition of EPHB2 (unknown origin) assessed as remaining activity at 1 uM by Kinome scan method relative to control
Sequence of Ephrin type-B receptor 2 (Homo sapiens) (P29323 whole entry): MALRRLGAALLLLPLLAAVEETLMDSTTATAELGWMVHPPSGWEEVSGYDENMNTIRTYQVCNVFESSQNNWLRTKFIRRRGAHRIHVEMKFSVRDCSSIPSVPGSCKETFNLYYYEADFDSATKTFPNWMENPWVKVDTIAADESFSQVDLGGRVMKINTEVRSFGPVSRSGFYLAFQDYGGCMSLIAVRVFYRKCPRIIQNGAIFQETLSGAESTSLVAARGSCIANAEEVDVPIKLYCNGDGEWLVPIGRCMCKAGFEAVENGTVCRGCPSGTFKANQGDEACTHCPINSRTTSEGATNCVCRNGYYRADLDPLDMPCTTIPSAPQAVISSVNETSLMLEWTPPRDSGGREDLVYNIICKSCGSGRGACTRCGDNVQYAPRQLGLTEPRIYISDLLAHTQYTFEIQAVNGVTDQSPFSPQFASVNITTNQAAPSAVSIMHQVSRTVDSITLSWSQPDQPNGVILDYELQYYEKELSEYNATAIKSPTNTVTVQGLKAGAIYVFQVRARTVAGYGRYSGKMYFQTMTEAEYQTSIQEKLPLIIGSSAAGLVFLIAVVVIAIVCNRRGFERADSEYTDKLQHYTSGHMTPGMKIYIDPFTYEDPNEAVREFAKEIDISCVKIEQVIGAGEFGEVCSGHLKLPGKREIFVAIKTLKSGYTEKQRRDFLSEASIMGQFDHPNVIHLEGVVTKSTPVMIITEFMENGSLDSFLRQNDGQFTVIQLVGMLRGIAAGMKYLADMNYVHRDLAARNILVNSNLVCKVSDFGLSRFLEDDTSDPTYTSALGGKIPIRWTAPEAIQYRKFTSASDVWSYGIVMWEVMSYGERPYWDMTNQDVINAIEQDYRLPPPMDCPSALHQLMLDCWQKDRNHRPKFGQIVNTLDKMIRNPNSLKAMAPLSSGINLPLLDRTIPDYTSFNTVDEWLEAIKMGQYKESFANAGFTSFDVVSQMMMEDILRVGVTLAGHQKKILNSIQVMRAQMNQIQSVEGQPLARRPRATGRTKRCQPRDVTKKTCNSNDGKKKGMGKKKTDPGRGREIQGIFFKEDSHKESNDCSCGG

[13] = biological target: Mitogen-activated protein kinase kinase kinase kinase 5 (Homo sapiens) (UniProt Q9Y4K4); test: Inhibition of MAP4K5 (unknown origin) assessed as remaining activity at 1 uM by Kinome scan method relative to control
Sequence of Mitogen-activated protein kinase kinase kinase kinase 5 (Homo sapiens) (Q9Y4K4 whole entry, looked up): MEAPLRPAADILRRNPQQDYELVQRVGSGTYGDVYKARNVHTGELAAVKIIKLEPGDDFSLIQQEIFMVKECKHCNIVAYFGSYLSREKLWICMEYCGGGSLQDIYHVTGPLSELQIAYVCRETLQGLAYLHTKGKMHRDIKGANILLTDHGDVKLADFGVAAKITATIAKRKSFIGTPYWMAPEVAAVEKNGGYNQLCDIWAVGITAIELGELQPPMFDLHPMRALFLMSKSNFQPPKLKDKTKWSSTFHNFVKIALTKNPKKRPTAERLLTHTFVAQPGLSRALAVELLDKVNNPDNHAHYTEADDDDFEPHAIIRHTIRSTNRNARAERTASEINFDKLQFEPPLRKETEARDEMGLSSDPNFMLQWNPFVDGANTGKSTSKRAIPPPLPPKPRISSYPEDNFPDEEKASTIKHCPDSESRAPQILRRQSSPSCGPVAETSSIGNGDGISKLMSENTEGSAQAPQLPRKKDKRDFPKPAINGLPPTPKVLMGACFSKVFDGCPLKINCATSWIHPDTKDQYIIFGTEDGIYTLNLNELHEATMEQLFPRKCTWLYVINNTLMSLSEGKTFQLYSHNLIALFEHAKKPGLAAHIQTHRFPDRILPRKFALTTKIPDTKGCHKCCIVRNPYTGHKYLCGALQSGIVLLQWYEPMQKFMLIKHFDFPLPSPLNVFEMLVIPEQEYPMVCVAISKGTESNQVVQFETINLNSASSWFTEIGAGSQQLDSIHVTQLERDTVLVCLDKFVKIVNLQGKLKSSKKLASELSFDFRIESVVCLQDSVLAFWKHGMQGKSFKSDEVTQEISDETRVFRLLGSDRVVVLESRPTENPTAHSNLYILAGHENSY

[14] = biological target: Mitogen-activated protein kinase kinase kinase 13 (Homo sapiens) (UniProt O43283); test: Inhibition of LZK (unknown origin) assessed as remaining activity at 1 uM by Kinome scan method relative to control
Sequence of Mitogen-activated protein kinase kinase kinase 13 (Homo sapiens) (O43283 whole entry): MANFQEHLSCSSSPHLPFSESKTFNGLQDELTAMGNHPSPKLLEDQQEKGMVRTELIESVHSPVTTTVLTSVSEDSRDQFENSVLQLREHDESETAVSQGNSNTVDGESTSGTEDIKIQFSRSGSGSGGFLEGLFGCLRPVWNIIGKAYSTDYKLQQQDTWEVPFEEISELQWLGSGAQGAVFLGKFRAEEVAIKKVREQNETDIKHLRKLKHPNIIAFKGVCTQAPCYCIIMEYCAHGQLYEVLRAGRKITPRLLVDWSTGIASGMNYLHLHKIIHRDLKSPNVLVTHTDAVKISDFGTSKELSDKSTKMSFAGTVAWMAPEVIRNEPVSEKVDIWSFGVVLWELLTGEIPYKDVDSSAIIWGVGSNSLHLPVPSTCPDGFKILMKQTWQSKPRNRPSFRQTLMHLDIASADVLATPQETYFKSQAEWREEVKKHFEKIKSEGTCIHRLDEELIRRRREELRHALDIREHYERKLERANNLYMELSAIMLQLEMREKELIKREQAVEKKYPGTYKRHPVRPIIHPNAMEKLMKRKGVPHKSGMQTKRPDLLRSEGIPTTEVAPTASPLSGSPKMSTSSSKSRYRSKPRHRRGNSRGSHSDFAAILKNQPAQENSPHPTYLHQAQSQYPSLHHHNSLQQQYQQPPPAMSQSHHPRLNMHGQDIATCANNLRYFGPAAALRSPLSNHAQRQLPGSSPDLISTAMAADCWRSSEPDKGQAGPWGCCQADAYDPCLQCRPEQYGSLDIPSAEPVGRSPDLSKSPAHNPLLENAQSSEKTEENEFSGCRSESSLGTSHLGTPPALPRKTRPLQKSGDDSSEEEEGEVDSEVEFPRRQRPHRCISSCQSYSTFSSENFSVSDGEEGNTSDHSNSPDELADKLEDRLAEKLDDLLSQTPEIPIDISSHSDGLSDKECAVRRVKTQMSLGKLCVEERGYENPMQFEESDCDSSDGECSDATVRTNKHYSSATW

[15] = tested on: Hepatocyte growth factor receptor (Homo sapiens), P08581 [M1250T]; test: Inhibition of MET M1250T mutant (unknown origin) assessed as remaining activity at 1 uM by Kinome scan method relative to control

Sequence of Serine/threonine-protein kinase 4 (Homo sapiens) (Q13043 whole entry): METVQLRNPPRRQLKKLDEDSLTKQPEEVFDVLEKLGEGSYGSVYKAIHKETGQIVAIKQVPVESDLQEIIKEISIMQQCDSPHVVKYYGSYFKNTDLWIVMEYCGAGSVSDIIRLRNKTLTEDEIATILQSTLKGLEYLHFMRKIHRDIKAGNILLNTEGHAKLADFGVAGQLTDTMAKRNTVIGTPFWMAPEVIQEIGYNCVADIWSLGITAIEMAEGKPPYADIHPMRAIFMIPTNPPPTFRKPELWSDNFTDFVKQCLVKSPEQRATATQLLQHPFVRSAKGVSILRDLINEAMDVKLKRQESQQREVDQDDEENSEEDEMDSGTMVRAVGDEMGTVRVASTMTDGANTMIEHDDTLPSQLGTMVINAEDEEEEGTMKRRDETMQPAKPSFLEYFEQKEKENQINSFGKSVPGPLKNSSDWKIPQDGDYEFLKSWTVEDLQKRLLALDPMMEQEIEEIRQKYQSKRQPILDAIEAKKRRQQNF

O=C1c2ccc(Nc3ccc(F)cc3F)cc2CCc2ccc(OC[C@H](O)CO)cc21 [Skepinone-L]
Activity [1]: 71%
Activity [2]: 100%
Activity [3]: 100%
Activity [4]: 89%
Activity [5]: 94%
IC50 [6]: 200 nM
Activity [7]: 87%
Activity [8]: 100%
Activity [9]: 83%
Activity [10]: 114%
Activity [11]: 88%
Activity [12]: 97%
Activity [13]: 100%
Activity [14]: 100%
Activity [15]: 93%
